Measured values from US10165776B2, “Substituted pyrazolylpyrazole derivative and use of same as herbicide” (KYOYU AGRI CO., LTD., priority 2015, dated 2019).

Tests used:
Type in all cases: in vivo
[1] = test system: Digitaria ciliaris; assay: Weed foliar treatment test (Test 4, 4.0 to 5.0 leaf stage); settings: 10 g a.i./10 a; foliar spray at 4.0 to 5.0 leaf stage of Digitaria ciliaris (plant height 10 cm to 15 cm); 20 days at 25° C.
Protocol: (§1) Field soil was filled into a 1/4500 are pot followed by seeding with Digitaria ciliaris and Galinsoga parviflora, covering with soil and cultivating in a glass greenhouse at an average atmospheric temperature of 25° C. Wettable powders of Target Compound (I) shown in Table 1 prepared in compliance with the preparation examples were diluted with water to the prescribed amount of chemical and uniformly sprayed onto the weeds using 100 liters of sprayed water per 10 are when Digitaria ciliaris had grown to the 4.0 to 5.0 leaf stage (plant height: 10 cm to 15 cm). After treating for 20 days in a glass greenhouse at an average atmospheric temperature of 25° C., the herbicidal efficacy thereof was investigated. Evaluation of herbicidal efficacy was carried out in the same manner as the above-mentioned Test Example 1.

[2] = test system: Galinsoga parviflora; assay: as above; settings: 10 g a.i./10 a; foliar spray at 4.0 to 5.0 leaf stage of Digitaria ciliaris (plant height 10 cm to 15 cm); 20 days at 25° C.
Protocol: as §1

[3] = test system: Echinochloa crus-galli; assay: Paddy herbicidal activity test; settings: irrigated pot, treated at 3.5 leaf stage of Echinochloa crus-galli, 30 days at 30° C.
Protocol: (§2) Rice paddy soil was filled into a 1/10000 are pot followed by the addition of suitable amounts of water and chemical fertilizer, kneading, seeding with Echinochloa crus-galli, Monochoria vaginalis and Scirpus juncoides and maintaining in an irrigated state at a water depth of 3 cm. Wettable powders of Target Compound (I) shown in Table 1 prepared in compliance with the preparation examples were diluted with a suitable amount of water, rice plants in the 2.0 leaf stage were transplanted during 3.5 leaf stage of Echinochloa crus-galli, and treated by dropping in chemical in the prescribed amount per 10 are using a pipette. After treating for 30 days in a glass greenhouse at an average atmospheric temperature of 30° C., the herbicidal efficacy thereof was investigated. Evaluation of herbicidal efficacy was carried out by comparing growth inhibition rate (%) with an untreated group, while evaluation of phytotoxicity was carried out by comparing growth inhibition rate (%) with the state of a complete eradication group, and were evaluated at 11 levels indicated below.

[4] = test system: Scirpus juncoides; assay: Paddy herbicidal activity test; settings: irrigated pot, treated at 3.5 leaf stage of Echinochloa crus-galli, 30 days at 30° C.
Protocol: as §2

[5] = test system: Monochoria vaginalis; assay: Paddy herbicidal activity test; settings: irrigated pot, treated at 3.5 leaf stage of Echinochloa crus-galli, 30 days at 30° C.
Protocol: as §2

[6] = test system: Amaranthus retroflexus; assay: Weed foliar treatment test (Test 3, 1.0 to 2.0 leaf stage); settings: foliar spray at 1.0 to 2.0 leaf stage of Digitaria ciliaris, 3 weeks at 25° C.
Protocol: (§3) Soil was filled into a 1/6000 are pot followed by seeding with Digitaria ciliaris, Chenopodium album and Amaranthus retroflexus, covering with soil, and cultivating in a glass greenhouse at an average atmospheric temperature of 25° C. Wettable powders of Target Compound (I) shown in Table 1 prepared in compliance with the preparation examples were diluted with water to the prescribed amount of chemical and uniformly sprayed onto the weeds using 150 liters of sprayed water per 10 are when Digitaria ciliaris had grown to the 1.0 to 2.0 leaf stage. After treating for 3 weeks in a glass greenhouse at an average atmospheric temperature of 25° C., the herbicidal efficacy thereof was investigated. Evaluation of herbicidal efficacy was carried out in the same manner as the above-mentioned Test Example 1.

[7] = test system: Chenopodium album; assay: as above; settings: foliar spray at 1.0 to 2.0 leaf stage of Digitaria ciliaris, 3 weeks at 25° C.
Protocol: as §3

[8] = test system: Digitaria ciliaris; assay: as above; settings: foliar spray at 1.0 to 2.0 leaf stage of Digitaria ciliaris, 3 weeks at 25° C.
Protocol: as §3

[9] = test system: Oryza sativa; assay: Paddy herbicidal activity test, phytotoxicity to transplanted rice; settings: rice transplanted at 2.0 leaf stage, 30 days at 30° C.
Protocol: as §2

[10] = test system: Amaranthus retroflexus; assay: Farming soil treatment test; settings: soil surface spray prior to weed growth, 30 days at 30° C.
Protocol: (§4) Field soil was filled into a 1/6000 are pot followed by seeding with Digitaria ciliaris, Chenopodium album and Amaranthus retroflexus and covering with soil. Wettable powders of compounds of formula (I) shown in Table 1 prepared in compliance with the preparation examples were diluted with water to the prescribed amount of chemical and uniformly sprayed onto each soil surface layer using 100 liters of sprayed water per 10 are prior to weed growth following seeding. After treating for 30 days in a glass greenhouse at an average atmospheric temperature of 30° C., the herbicidal efficacy thereof was investigated. Evaluation of herbicidal efficacy was carried out in the same manner as the above-mentioned Test Example 1.

[11] = test system: Chenopodium album; assay: Farming soil treatment test; settings: soil surface spray prior to weed growth, 30 days at 30° C.
Protocol: as §4

[12] = test system: Digitaria ciliaris; assay: Farming soil treatment test; settings: soil surface spray prior to weed growth, 30 days at 30° C.
Protocol: as §4

Compound: N#Cc1cnn(-c2nn3c(c2Cl)CCC3)c1NC(=O)Cc1ccccc1 [Compound 2]
- herbicidal efficacy, Digitaria ciliaris [1]: 10 (10: 100%)
- herbicidal efficacy, Galinsoga parviflora [2]: 10 (10: 100%)

Compound: N#Cc1cnn(-c2nn3c(c2Cl)CCCC3)c1NC(=O)Cc1ccccc1 [Compound 3]
- herbicidal efficacy, Echinochloa crus-galli ([3]; 1 g a.i./10 a): 9 (9: 90% to less than 100%)
- herbicidal efficacy, Echinochloa crus-galli ([3]; 5 g a.i./10 a): 10 (10: 100%)
- herbicidal efficacy, Scirpus juncoides ([4]; 1 g a.i./10 a): 9 (9: 90% to less than 100%)
- herbicidal efficacy, Scirpus juncoides ([4]; 5 g a.i./10 a): 10 (10: 100%)
- herbicidal efficacy, Monochoria vaginalis ([5]; 1 g a.i./10 a): 9 (9: 90% to less than 100%)
- herbicidal efficacy, Monochoria vaginalis ([5]; 5 g a.i./10 a): 10 (10: 100%)
- herbicidal efficacy, Amaranthus retroflexus ([6]; 5 g a.i./10 a): 9 (9: 90% to less than 100%)
- herbicidal efficacy, Amaranthus retroflexus ([6]; 10 g a.i./10 a): 10 (10: 100%)
- herbicidal efficacy, Chenopodium album ([7]; 5 g a.i./10 a): 10 (10: 100%)
- herbicidal efficacy, Chenopodium album ([7]; 10 g a.i./10 a): 10 (10: 100%)
- herbicidal efficacy, Digitaria ciliaris ([8]; 5 g a.i./10 a): 10 (10: 100%)
- herbicidal efficacy, Digitaria ciliaris ([8]; 10 g a.i./10 a): 10 (10: 100%)
- herbicidal efficacy, Digitaria ciliaris [1]: 10 (10: 100%)
- herbicidal efficacy, Galinsoga parviflora [2]: 10 (10: 100%)
- phytotoxicity, Oryza sativa ([9]; 1 g a.i./10 a): 0 (0 (exponent): 0% to less than 10% (growth inhibition rate))
- phytotoxicity, Oryza sativa ([9]; 5 g a.i./10 a): 1 (1: 10% to less than 20%)
- herbicidal efficacy, Amaranthus retroflexus ([10]; 5 g a.i./10 a): 9 (9: 90% to less than 100%)
- herbicidal efficacy, Amaranthus retroflexus ([10]; 10 g a.i./10 a): 9 (9: 90% to less than 100%)
- herbicidal efficacy, Chenopodium album ([11]; 5 g a.i./10 a): 9 (9: 90% to less than 100%)
- herbicidal efficacy, Chenopodium album ([11]; 10 g a.i./10 a): 10 (10: 100%)
- herbicidal efficacy, Digitaria ciliaris ([12]; 5 g a.i./10 a): 9 (9: 90% to less than 100%)
- herbicidal efficacy, Digitaria ciliaris ([12]; 10 g a.i./10 a): 9 (9: 90% to less than 100%)

Compound: N#Cc1cnn(-c2nn3c(c2Br)CCCC3)c1NC(=O)Cc1ccccc1 [Compound 4]
- herbicidal efficacy, Digitaria ciliaris [1]: 10 (10: 100%)
- herbicidal efficacy, Galinsoga parviflora [2]: 10 (10: 100%)

Compound: O=C(Cc1ccccc1)Nc1c([N+](=O)[O-])cnn1-c1nn2c(c1Cl)CCCC2 [Compound 5]
- herbicidal efficacy, Echinochloa crus-galli ([3]; 1 g a.i./10 a): 10 (10: 100%)
- herbicidal efficacy, Echinochloa crus-galli ([3]; 5 g a.i./10 a): 10 (10: 100%)
- herbicidal efficacy, Scirpus juncoides ([4]; 1 g a.i./10 a): 9 (9: 90% to less than 100%)
- herbicidal efficacy, Scirpus juncoides ([4]; 5 g a.i./10 a): 10 (10: 100%)
- herbicidal efficacy, Monochoria vaginalis ([5]; 1 g a.i./10 a): 10 (10: 100%)
- herbicidal efficacy, Monochoria vaginalis ([5]; 5 g a.i./10 a): 10 (10: 100%)
- herbicidal efficacy, Amaranthus retroflexus ([6]; 5 g a.i./10 a): 10 (10: 100%)
- herbicidal efficacy, Amaranthus retroflexus ([6]; 10 g a.i./10 a): 10 (10: 100%)
- herbicidal efficacy, Chenopodium album ([7]; 5 g a.i./10 a): 10 (10: 100%)
- herbicidal efficacy, Chenopodium album ([7]; 10 g a.i./10 a): 10 (10: 100%)
- herbicidal efficacy, Digitaria ciliaris ([8]; 5 g a.i./10 a): 10 (10: 100%)
- herbicidal efficacy, Digitaria ciliaris ([8]; 10 g a.i./10 a): 10 (10: 100%)
- herbicidal efficacy, Digitaria ciliaris [1]: 10 (10: 100%)
- herbicidal efficacy, Galinsoga parviflora [2]: 10 (10: 100%)
- phytotoxicity, Oryza sativa ([9]; 1 g a.i./10 a): 1 (1: 10% to less than 20%)
- phytotoxicity, Oryza sativa ([9]; 5 g a.i./10 a): 1 (1: 10% to less than 20%)
- herbicidal efficacy, Amaranthus retroflexus ([10]; 5 g a.i./10 a): 9 (9: 90% to less than 100%)
- herbicidal efficacy, Amaranthus retroflexus ([10]; 10 g a.i./10 a): 9 (9: 90% to less than 100%)
- herbicidal efficacy, Chenopodium album ([11]; 5 g a.i./10 a): 9 (9: 90% to less than 100%)
- herbicidal efficacy, Chenopodium album ([11]; 10 g a.i./10 a): 10 (10: 100%)
- herbicidal efficacy, Digitaria ciliaris ([12]; 5 g a.i./10 a): 9 (9: 90% to less than 100%)
- herbicidal efficacy, Digitaria ciliaris ([12]; 10 g a.i./10 a): 9 (9: 90% to less than 100%)

Compound: Cc1ccccc1CC(=O)Nc1c(C#N)cnn1-c1nn2c(c1Cl)CCCC2 [Compound 6]
- herbicidal efficacy, Echinochloa crus-galli ([3]; 1 g a.i./10 a): 10 (10: 100%)
- herbicidal efficacy, Echinochloa crus-galli ([3]; 5 g a.i./10 a): 10 (10: 100%)
- herbicidal efficacy, Scirpus juncoides ([4]; 1 g a.i./10 a): 10 (10: 100%)
- herbicidal efficacy, Scirpus juncoides ([4]; 5 g a.i./10 a): 10 (10: 100%)
- herbicidal efficacy, Monochoria vaginalis ([5]; 1 g a.i./10 a): 10 (10: 100%)
- herbicidal efficacy, Monochoria vaginalis ([5]; 5 g a.i./10 a): 10 (10: 100%)
- herbicidal efficacy, Amaranthus retroflexus ([6]; 5 g a.i./10 a): 10 (10: 100%)
- herbicidal efficacy, Amaranthus retroflexus ([6]; 10 g a.i./10 a): 10 (10: 100%)
- herbicidal efficacy, Chenopodium album ([7]; 5 g a.i./10 a): 10 (10: 100%)
- herbicidal efficacy, Chenopodium album ([7]; 10 g a.i./10 a): 10 (10: 100%)
- herbicidal efficacy, Digitaria ciliaris ([8]; 5 g a.i./10 a): 10 (10: 100%)
- herbicidal efficacy, Digitaria ciliaris ([8]; 10 g a.i./10 a): 10 (10: 100%)
- herbicidal efficacy, Digitaria ciliaris [1]: 10 (10: 100%)
- herbicidal efficacy, Galinsoga parviflora [2]: 10 (10: 100%)
- phytotoxicity, Oryza sativa ([9]; 1 g a.i./10 a): 1 (1: 10% to less than 20%)
- phytotoxicity, Oryza sativa ([9]; 5 g a.i./10 a): 1 (1: 10% to less than 20%)
- herbicidal efficacy, Amaranthus retroflexus ([10]; 5 g a.i./10 a): 9 (9: 90% to less than 100%)
- herbicidal efficacy, Amaranthus retroflexus ([10]; 10 g a.i./10 a): 9 (9: 90% to less than 100%)
- herbicidal efficacy, Chenopodium album ([11]; 5 g a.i./10 a): 9 (9: 90% to less than 100%)
- herbicidal efficacy, Chenopodium album ([11]; 10 g a.i./10 a): 10 (10: 100%)
- herbicidal efficacy, Digitaria ciliaris ([12]; 5 g a.i./10 a): 9 (9: 90% to less than 100%)
- herbicidal efficacy, Digitaria ciliaris ([12]; 10 g a.i./10 a): 9 (9: 90% to less than 100%)

Compound: COc1ccccc1CC(=O)Nc1c(C#N)cnn1-c1nn2c(c1Cl)CCCC2 [Compound 7]
- herbicidal efficacy, Digitaria ciliaris [1]: 10 (10: 100%)
- herbicidal efficacy, Galinsoga parviflora [2]: 10 (10: 100%)

Compound: N#Cc1cnn(-c2nn3c(c2Cl)CCCC3)c1NC(=O)Cc1ccccc1Cl [Compound 8]
- herbicidal efficacy, Digitaria ciliaris [1]: 10 (10: 100%)
- herbicidal efficacy, Galinsoga parviflora [2]: 10 (10: 100%)

Compound: COc1cccc(CC(=O)Nc2c(C#N)cnn2-c2nn3c(c2Cl)CCCC3)c1 [Compound 10]
- herbicidal efficacy, Digitaria ciliaris [1]: 10 (10: 100%)
- herbicidal efficacy, Galinsoga parviflora [2]: 10 (10: 100%)

Compound: N#Cc1cnn(-c2nn3c(c2Cl)CCCC3)c1NC(=O)Cc1cccc(Cl)c1 [Compound 12]
- herbicidal efficacy, Digitaria ciliaris [1]: 10 (10: 100%)
- herbicidal efficacy, Galinsoga parviflora [2]: 10 (10: 100%)

Compound: Cc1ccc(CC(=O)Nc2c(C#N)cnn2-c2nn3c(c2Cl)CCCC3)cc1 [Compound 13]
- herbicidal efficacy, Digitaria ciliaris [1]: 10 (10: 100%)
- herbicidal efficacy, Galinsoga parviflora [2]: 10 (10: 100%)

Compound: COc1ccc(CC(=O)Nc2c(C#N)cnn2-c2nn3c(c2Cl)CCCC3)cc1 [Compound 14]
- herbicidal efficacy, Digitaria ciliaris [1]: 10 (10: 100%)
- herbicidal efficacy, Galinsoga parviflora [2]: 10 (10: 100%)

Compound: N#Cc1cnn(-c2nn3c(c2Cl)CCCC3)c1NC(=O)Cc1ccc(Cl)cc1 [Compound 16]
- herbicidal efficacy, Digitaria ciliaris [1]: 10 (10: 100%)
- herbicidal efficacy, Galinsoga parviflora [2]: 10 (10: 100%)

Compound: N#Cc1cnn(-c2nn3c(c2Cl)CCCC3)c1NC(=O)Cc1ccc(C(F)(F)F)cc1 [Compound 17]
- herbicidal efficacy, Digitaria ciliaris [1]: 10 (10: 100%)
- herbicidal efficacy, Galinsoga parviflora [2]: 10 (10: 100%)

Compound: N#Cc1cnn(-c2nn3c(c2Cl)CCCC3)c1NC(=O)Cc1ccc(Cl)cc1Cl [Compound 18]
- herbicidal efficacy, Digitaria ciliaris [1]: 10 (10: 100%)
- herbicidal efficacy, Galinsoga parviflora [2]: 10 (10: 100%)
